Drawing on ChEMBL document CHEMBL4219180, “Dibenzofuran, dibenzothiophene and N-methyl carbazole tethered 2-aminothiazoles and their cinnamamides as potent inhibitors of Mycobacterium tuberculosis” (Bioorg Med Chem Lett, 2018), this text covers MIC and inhibition for 22 molecules.

In brackets after ≈: the same amount, converted by molar mass.

The test system of series [1] is Mycobacterium tuberculosis. Kind of series: Antimycobacterial activity against Mycobacterium tuberculosis H37Rv ATCC 27294 after 28 days by agar dilution method. It is filed as functional. To be noted: H37Rv ATCC 27294, 672 h. On the technique in general: In agar dilution the substance is mixed into plates at graded concentrations.
A short description of series [2]: Growth inhibition of HEK293T cells at 50 ug/ml after 72 hrs by MTT assay. It is filed as cell-based, HEK-293T. To be noted: human, read-out: GI. (Tetrazolium dyes change colour on reduction, which living cells bring about.)
The test system of series [3] is Mycobacterium tuberculosis. Kind of series: Antimycobacterial activity against Mycobacterium tuberculosis. It is filed as functional.

By MIC is commonly meant the least concentration at which growth counts as inhibited. `Cc1ccc(/C=C/C(=O)Nc2nc(-c3ccc4c(c3)c3ccccc3n4C)cs2)cc1`: it took 25 µg/mL (≈ 59 µM) to inhibit growth in series [1] (MIC). For the same molecule, in series [2], the inhibition at 72 h, 50 ug/ml turned out to be 19.4%.
Taken in the same sequence, the figures for `Cn1c2ccccc2c2cc(-c3csc(N)n3)ccc21` were 12.5 µg/mL (≈ 44.7 µM) and 38.1%.
`O=C(/C=C/c1ccccc1)Nc1nc(-c2ccc3oc4ccccc4c3c2)cs1`: the MIC in series [1] came out at 50 µg/mL (≈ 126 µM). Moreover, in series [2], the inhibition at 72 h, 50 ug/ml came to 52.6%.
The molecule `Cc1ccc(/C=C/C(=O)Nc2nc(-c3ccc4sc5ccccc5c4c3)cs2)cc1` returned an MIC in series [1] of 50 µg/mL (≈ 117 µM). For the same molecule, in series [2], the inhibition at 72 h, 50 ug/ml stood at 48%.
Taken in the same sequence, the figures for `O=C(/C=C/c1ccc(Br)cc1)Nc1nc(-c2ccc3oc4ccccc4c3c2)cs1` were 12.5 µg/mL (≈ 26.3 µM) and 68.6%.
Taken in the same sequence, the figures for `O=C(/C=C/c1ccc(Br)cc1)Nc1nc(-c2ccc3sc4ccccc4c3c2)cs1` were 6.25 µg/mL (≈ 12.7 µM) and 28.3%.
Taken in the same sequence, the figures for `O=C(/C=C/c1ccc(F)cc1)Nc1nc(-c2ccc3sc4ccccc4c3c2)cs1` were 0.78 µg/mL (≈ 1.81 µM) and 57.2%.
In series [1], `Cn1c2ccccc2c2cc(-c3csc(NC(=O)/C=C/c4ccc(Br)cc4)n3)ccc21` had an MIC of 0.78 µg/mL (≈ 1.6 µM). Also, the inhibition at 72 h, 50 ug/ml in series [2] was found to be 12.1%.
With `CC(C)c1ccc(/C=C/C(=O)Nc2nc(-c3ccc4c(c3)c3ccccc3n4C)cs2)cc1`, in series [1], the MIC turned out to be 50 µg/mL (≈ 111 µM). Besides, the inhibition at 72 h, 50 ug/ml in series [2] is 62%.
In turn, `Nc1nc(-c2ccc3oc4ccccc4c3c2)cs1` displayed an MIC in series [1] of 1.56 µg/mL (≈ 5.86 µM). For the same molecule, the inhibition at 72 h, 50 ug/ml in series [2] stood at 48.1%.
`NNC(=O)c1ccncc1` [ISONIAZID] returned an MIC in series [1] of 0.1 µg/mL (≈ 0.729 µM).
Same read-out and setting: for `NC(=O)c1cnccn1` [PYRAZINAMIDE] the value was 50 µg/mL (≈ 406 µM).
Consider `CC(C)c1ccc(/C=C/C(=O)Nc2nc(-c3ccc4oc5ccccc5c4c3)cs2)cc1`, for which the MIC in series [1] was 6.25 µg/mL (≈ 14.3 µM). Also, the inhibition at 72 h, 50 ug/ml in series [2] was 42.2%.
Turning to `Cn1c2ccccc2c2cc(-c3csc(NC(=O)/C=C/c4ccc(F)cc4)n3)ccc21`, the lowest concentration to inhibit growth in series [1] (MIC) was 50 µg/mL (≈ 117 µM). Besides, the inhibition at 72 h, 50 ug/ml in series [2] stood at 23.8%.
Molecule `Nc1nc(-c2ccc3sc4ccccc4c3c2)cs1` displayed an MIC in series [1] of 1.56 µg/mL (≈ 5.52 µM). Moreover, the inhibition at 72 h, 50 ug/ml in series [2] was determined as 56.7%.
`Cn1c2ccccc2c2cc(-c3csc(NC(=O)/C=C/c4ccccc4)n3)ccc21`: the MIC in series [1] came out at 50 µg/mL (≈ 122 µM). Also, the inhibition at 72 h, 50 ug/ml in series [2] amounted to 14.3%.
`CC[C@@H](CO)NCCN[C@@H](CC)CO` [ETHAMBUTOL] yielded an MIC in series [1] of 3.13 µg/mL (≈ 15.3 µM).
Turning to `O=C(/C=C/c1ccccc1)Nc1nc(-c2ccc3sc4ccccc4c3c2)cs1`, 50 µg/mL (≈ 121 µM) was the least that counted as inhibitory in series [1] (MIC). Further, in series [2], the inhibition at 72 h, 50 ug/ml stood at 68.6%.
Taken in the same sequence, the figures for `O=C(/C=C/c1ccc(F)cc1)Nc1nc(-c2ccc3oc4ccccc4c3c2)cs1` were 50 µg/mL (≈ 121 µM) and 36.8%.
Molecule `Cc1ccc(/C=C/C(=O)Nc2nc(-c3ccc4oc5ccccc5c4c3)cs2)cc1` yielded an MIC in series [1] of 50 µg/mL (≈ 122 µM). In addition, in series [2], the inhibition at 72 h, 50 ug/ml was determined as 51.3%.
Taken in the same sequence, the figures for `CC(C)c1ccc(/C=C/C(=O)Nc2nc(-c3ccc4sc5ccccc5c4c3)cs2)cc1` were 0.78 µg/mL (≈ 1.72 µM) and 43.1%.
For `CC(=O)C1=C(O)C=C2Oc3c(C(C)=O)c(O)c(C)c(O)c3C2(C)C1=O` (stereo not given), in series [3], the MIC came to 12.5 µg/mL (≈ 36.3 µM).
